Reference: patent publication US20250206759A1, “FUSED RING COMPOUND, PHARMACEUTICAL COMPOSITION CONTAINING SAME, AND USE OF FUSED RING COMPOUND” (CHENGDU HYPERWAY PHARMACEUTICALS CO., LTD., priority 2022, published 2025)
Like-named read-outs stand apart in the source and are kept apart here.

Key:
[1] = Pharmacokinetics of compounds in rats (oral); type: in vivo, SD rats; conditions: male SD rats
Method: Male SD rats were purchased from Shanghai SIPPR-Bk Lab Animal Co., Ltd. Each test compound was administered orally (3 rats per group) once to SD rats for pharmacokinetic study. The test compounds were prepared on the day of administration. The test compounds were suspended in 5% DMSO+95% saline, and then vortexed for 2 min and ultrasonicated for 5 min to prepare the administration system. The animals were fasted for 10-14 h before oral administration, and the feeding was resumed 4 h after administration. After oral administration by gavage, pharmacokinetic samples were collected from SD rats through the jugular vein. The collection time points were: before administration, 15 min, 30 min, 1 h, 2 h, 4 h, 6 h, 8 h and 24 h after administration. Three whole blood samples were collected at each time point, with a collection volume of about 0.2 mL, and anticoagulated with sodium heparin. After blood samples were collected, they were immediately placed on ice and centrifuged to separate plasma within 1 hour (centrifugation conditions: 6800 rpm, 6 min, 2-8° C.). The collected plasma was stored in a −80° C. refrigerator before analysis.

[2] = test system: KRas G12D-mediated ERK phosphorylation; assay: Inhibition of KRas G12D-mediated ERK phosphorylation in AGS cells; type: cell-based; conditions: read-out: AGS-pERK IC50
Method: Day 1: AGS cells were seeded into 384-well cell culture plates and cultured overnight in a 37° C., 5% CO2 incubator.
Day 2: The compounds were added to the plates using Echo550 and incubated for 3 h in a 37° C., 5% CO2 incubator. Then cells were fixed with paraformaldehyde, permeated with methanol, and blocked with the blocking solution. Finally, a mixed solution of primary antibodies (rabbit anti pERK, mouse anti GAPDH) was added, and the mixture was incubated at 4° C. overnight.
Day 3: The mixed solution of primary antibodies was discarded, and a mixed solution of secondary antibodies (goat anti rabbit 800CW, goat anti mouse 680RD) was added. The mixture was incubated at room temperature in the dark. Finally, the cell culture plate was washed with PBST, and then inverted for 1 minute of centrifugation. The fluorescence signal values were read with Odyssey CLx.
ERK phosphorylation was calculated according to the following formula: […]
X: log value of compound concentration.
Y: average value of relative expression of p-ERK between replicate wells.

GP2d cells = assay: 3D cell proliferation inhibition test (CellTiter-Glo), GP2d cells; type: cell-based; conditions: 7 days, read-out: GP2d cells 3D CTG IC50
Method: (§1) The diluted compounds to be tested were added to 384-well low-adhesion cell culture plates by using a nanoliter pipetting system (LABCYTE, P-0200). Then, the cells were plated and incubated in a 37° C., […] incubator for 7 days. Afterward, CellTiter-Glo® […] reagent was added, and the luminescent values were read by an Envision multifunctional microplate reader (the luminescent signal is proportional to the amount of ATP in the system, and the ATP content directly represents the number of viable cells in the system). Finally, the IC50 values (half-maximal inhibitory concentration) of the compounds were obtained by the XLFIT software using the nonlinear fitting formula.
(§2) a) The diluted compounds to be tested were added to 384-well low-adsorption cell culture plates by using a nanoliter pipetting system.
(§3) b) Cells were seeded into the 384-well plates in a) and then centrifuged at 1000 rpm for 1 min at room temperature, with a final DMSO concentration of compound being 0.5%. The plates were then incubated in a 37° C., 5% CO2 constant temperature incubator for 7 days.
(§4) c) CellTiter-Glo® 3D was added to the 384-well cell culture plates in b), shaken in the dark, and incubated at room temperature.
(§5) d) The luminescence values were read by using an Envision multifunctional microplate reader.
(§6) The IC50 (half-maximal inhibitory concentration) values of the compounds were obtained by using XLFIT software according to the following nonlinear fitting formula:
(§7) [formula] • X: log value of compound concentration. • Y: inhibition rate (%)
(§8) Inhibition rate (%)=100×(average value of negative control−compound)/(average value of negative control−average value of positive control)
(§9) Positive control: Medium only.

ASPC-1 cells = assay: 3D cell proliferation inhibition test (CellTiter-Glo), ASPC-1 cells; type: cell-based; conditions: 7 days, read-out: ASPC-1 cells 3D CTG IC50
Method: as §1, §2, §3, §4, §5, §6, §7, §8, §9

[3] = male, SD, rat, plasma, po, 100 mg/kg, 100 mg/kg, read-out: AUC
[4] = male, SD, rat, plasma, po, 100 mg/kg, 100 mg/kg, read-out: Cmax

| IC50 [2] [nM] | Compound | Cmax ([1]; 100 mg/kg) [ng/mL] | AUC [1, 3] [ng·h/mL] | Cmax [1, 4] [ng/mL] | IC50 ([2]; Homo sapiens, AGS) [nM] | other results |
| --- | --- | --- | --- | --- | --- | --- |
| 27 | 4-(4-((1R,5S)-3,8-diazabicyclo[3.2.1]octan-3-yl)-8-fluoro-2-((3-(4-methoxyphenyl)tetrahydro-1H-pyrrolidin-7a(5H)-yl)methoxy)pyrido[4,3-d]pyrimidin-7-yl)-5,6-difluoronaphthalen-2-ol [Example 34] | – | – | – | – | AUC ([1]; 10 mg/kg): 75 ng·h/mL; Cmax ([1]; 10 mg/kg): 25 ng/mL |
| – | Oc1cc(-c2ncc3c(N4CC5CCC(C4)N5)nc(OCC45CCCN4[C@@H](c4ccc(Cl)c(Cl)c4)CC5)nc3c2F)c2c(F)c(F)ccc2c1 (mixture of isomers) [Example 220] | – | 140 | 38 | 3.2 | – |
| – | Oc1cc(-c2ncc3c(N4CC5CCC(C4)N5)nc(OCC45CCCN4[C@@H](c4cc(F)c(F)c(F)c4)CC5)nc3c2F)c2c(F)c(F)ccc2c1 (mixture of isomers) [Example 222] | 82 | 258 | – | 1.1 | – |
| – | CC1(C)OC(C)(C)c2cc([C@H]3CCC4(COc5nc(N6CC7CCC(C6)N7)c6cnc(-c7cc(O)cc8ccc(F)c(F)c78)c(F)c6n5)CCCN34)ccc21 (single isomer, unassigned) [Example 198] | – | 219 | 141 | 0.72 | – |
| 41 | Oc1cc(-c2ncc3c(N4C[C@H]5CC[C@@H](C4)N5)nc(OCC45CCCN4C(c4ccc6c(c4)COC6)CC5)nc3c2F)c2ccccc2c1 (stereo partly drawn) [Example 43, 4-(4-((1R,5S)-3,8-diazabicyclo[3.2.1]octan-3-yl)-2-((3-(1,3-dihydroisobenzofuran-5-yl)tetrahydro-1H-pyrrolidin-7a(5H)-yl)methoxy)-8-fluoropyrido[4,3-d]pyrimidin-7-yl)naphthalen-2-ol] | 164 | – | – | – | AUC ([1]; 100 mg/kg): 537 ng·h/mL |
| – | CC1(C)OCc2cc(C3CCC4(COc5nc(N6C[C@H]7CC[C@@H](C6)N7)c6cnc(-c7cc(O)cc8ccc(F)c(F)c78)c(F)c6n5)CCCN34)ccc21 (stereo partly drawn) [Example 146, 4-(4-((1R,5S)-3,8-diazabicyclo[3.2.1]octan-3-yl)-2-((3-(1,1-dimethyl-1,3-dihydroisobenzofuran-5-yl)tetrahydro-1H-pyrrolizin-7a(5H)-yl)methoxy)-8-fluoropyrido[4,3-d]pyrimidin-7-yl)-5,6-difluoronaphthalen-2-ol] | – | 483 | 143 | 11 | – |
| 23 | CC1(C)OC(C)(C)c2cc(C3CCC4(COc5nc(N6C[C@H]7CC[C@@H](C6)N7)c6cnc(-c7cc(O)cc8ccccc78)c(F)c6n5)CCCN34)ccc21 (stereo partly drawn) [Example 149, 4-(4-((1R,5S)-3,8-diazabicyclo[3.2.1]octan-3-yl)-8-fluoro-2-((3-(1,1,3,3-tetramethyl-1,3-dihydroisobenzofuran-5-yl)tetrahydro-1H-pyrrolizin-7a(5H)-yl)methoxy)pyrido[4,3d]pyrimidin-7-yl)naphthalen-2-ol] | 148 | – | – | – | AUC ([1]; 100 mg/kg): 1192 ng·h/mL |
| – | [2H]C1([2H])OCc2cc(C3CCC4(COc5nc(N6C[C@H]7CC[C@@H](C6)N7)c6cnc(-c7cc(O)cc8ccc(F)c(F)c78)c(F)c6n5)CCCN34)ccc21 (stereo partly drawn) [Example 151, 4-(4-((1R,5S)-3,8-diazabicyclo[3.2.1]octan-3-yl)-2-((3-(1,3-dihydroisobenzofuran-5-yl-1,1-d2)tetrahydro-1H-pyrrolizin-7a(5H)-yl)methoxy)-8-fluoropyrido[4,3-d]pyrimidin-7-yl)-5,6-difluoronaphthalen-2-ol] | – | – | – | 7.6 | – |
| 5.2 | Oc1cc(-c2ncc3c(N4C[C@H]5CC[C@@H](C4)N5)nc(OCC45CCCN4C(c4ccc6c(c4)C4CCC6O4)CC5)nc3c2F)c2c(F)c(F)ccc2c1 (stereo partly drawn) [Example 153, 4-(4-((1R,5S)-3,8-diazabicyclo[3.2.1]octan-3-yl)-8-fluoro-2-((3-(1,2,3,4-tetrahydro-1,4-epoxynaphthalen-6-yl)tetrahydro-1H-pyrrolizin-7a(5H)-yl)methoxy)pyrido[4,3d]pyrimidin-7-yl)-5,6-difluoronaphthalen-2-ol] | 156 | – | – | – | AUC ([1]; 100 mg/kg): 458 ng·h/mL |
| – | CC1(C)OCc2ccc(C3CCC4(COc5nc(N6CC7CCC(C6)N7)c6cnc(-c7cc(O)cc8ccc(F)c(F)c78)c(F)c6n5)CCCN34)cc21 [Example 156, 4-(4-((1R,5S)-3,8-diazabicyclo[3.2.1]octan-3-yl)-2-((3-(3,3-dimethyl-1,3-dihydroisobenzofuran-5-yl)tetrahydro-1H-pyrrolizin-7a(5H)-yl)methoxy)-8-fluoropyridin[4,3-d]pyrimidin-7-yl)-5,6-difluoronaphthalen-2-ol] | – | 598 | 138 | 15 | – |
| – | Nc1cc(Cl)c(C(F)(F)F)c(-c2ncc3c(N4C[C@H]5CC[C@@H](C4)N5)nc(OCC45CCCN4C(c4ccc6c(c4)OC(F)(F)O6)CC5)nc3c2F)c1 (stereo partly drawn) [Example 161, 3-(4-((1R,5S)-3,8-diazabicyclo[3.2.1]octan-3-yl)-2-((3-(2,2-difluorobenzo[d][1,3]dioxy-5-yl)tetrahydro-1H-pyrrolizin-7a(5H)-yl)methoxy)-8-fluoropyridin[4,3-d]pyrimidin-7-yl)-5-chloro-4-(trifluoromethyl) aniline] | 193 | – | – | – | AUC ([1]; 100 mg/kg): 1080 ng·h/mL; IC50 (GP2d cells): 10.9 nM; IC50 (ASPC-1 cells): 46.9 nM |
| – | C#Cc1c(F)ccc2cc(O)cc(-c3ncc4c(N5CC6CCC(C5)N6)nc(OCC56CCCN5C(c5ccc7c(c5)COC7)CC6)nc4c3F)c12 (stereo not drawn) [Example 178] | – | – | – | 3.8 | – |
| – | Oc1cc(-c2ncc3c(N4CC5CCC(C4)N5)nc(OCC45CCCN4C(c4ccc6c(c4)COCC6)CC5)nc3c2F)c2c(F)c(F)ccc2c1 (stereo not drawn) [Example 187] | – | 567 | 109 | 13 | – |
| – | C#Cc1c(F)ccc2cc(O)cc(-c3ncc4c(N5CC6CCC(C5)N6)nc(OCC56CCCN5C(c5ccc(F)cc5)CC6)nc4c3F)c12 (stereo not drawn) [Example 188] | – | 862 | 149 | 5.2 | – |
| – | COc1ccc([C@H]2CCC3(COc4nc(N5CC6CCC(C5)N6)c5cnc(-c6cc(O)cc7ccc(F)c(F)c67)c(F)c5n4)CCCN23)cc1OC(F)(F)F (stereo partly drawn) [Example 216] | – | – | – | 1.6 | – |
| – | Oc1cc(-c2ncc3c(N4CC5CCC(C4)N5)nc(OCC45CCCN4C(c4ccc(Cl)c(C(F)(F)F)c4)CC5)nc3c2F)c2c(F)c(F)ccc2c1 (stereo not drawn) [Example 227] | – | 245 | 52 | 2.4 | – |
| – | Nc1cc(Cl)c(C(F)(F)F)c(-c2ncc3c(N4CC5CCC(C4)N5)nc(OCC45CCCN4C(c4ccc(F)c(F)c4)CC5)nc3c2F)c1 (stereo not drawn) [Example 244] | – | – | – | 6.4 | – |

| Compound | IC50 [2] [nM] | Cmax ([1]; 100 mg/kg) [ng/mL] | AUC [1, 3] [ng·h/mL] | Cmax [1, 4] [ng/mL] | IC50 ([2]; Homo sapiens, AGS) [nM] | other results |
| --- | --- | --- | --- | --- | --- | --- |
| CC1(C)OC(C)(C)c2cc([C@H]3CCC4(COc5nc(N6CC7CCC(C6)N7)c6cnc(-c7cc(O)cc8ccc(F)c(F)c78)c(F)c6n5)CCCN34)ccc21 (mixture of isomers) [Example 211] | 0.96 | 97 | – | – | – | AUC ([1]; 100 mg/kg): 225 ng·h/mL |
| Oc1cc(-c2ncc3c(N4CC5CCC(C4)N5)nc(OCC45CCCN4C(c4ccc(F)cc4)CC5)nc3c2F)c2c(F)c(F)ccc2c1 (stereo not drawn) [Example 108] | 14 | – | 2090 | 157 | – | – |
| Oc1cc(-c2ncc3c(N4CC5CCC(C4)N5)nc(OCC45CCCN4C(c4ccc(F)cc4)CC5)nc3c2F)c2c(F)c(F)ccc2c1 (stereo not drawn) [Example 194] | 1.1 | – | – | – | – | – |
